Patent publication US6509344B1, “Indenoisoquinolines as antineoplastic agents” (The United States of America as represented by the …, priority 1998, dated 2003)
Read-outs that look alike come from different tables or passages of the source.

Assays:
[1] = system: DU-145; experiment: NCI human cancer cell line screen (COMPARE screening), Prostate DU-145; type: cell-based
Text: (§1) Considering the diversity of cancer in terms of cell type, morphology, growth rate and other cellular characteristics, the U.S. National Cancer Institute (NCI) has developed a “disease-oriented” approach to anticancer activity screening (M. R. Boyd, in “Principle of Practice of Oncology” […]. Rosenberg (Eds.) Vol. 3, PPO Update, No. 10, 1989). This in vitro prescreening system is based on the measurement of anticancer cytotoxicity against human cancer cell line panels consisting of approximately 60 cell lines of major human cancers (including leukemia and slower growing tumor cells such as lung, colon, breast, skin, kidney, etc.) and is referred hereinafter as “COMPARE” screening. An important advantage of the new in vitro screening panels is the opportunity to facilitate identification of compounds that are selectively more cytotoxic to cells of certain types of cancers, thus increasing the ability to select compounds for further study with respect to specific diseases. The indenoisoquinolines were examined for antiproliferative activity against the human cancer cell lines in the National Cancer Institute screen (COMPARE screening), in which the activity of each compound was evaluated with approximately […] different cancer cell lines of diverse tumor origins.

[2] = system: SF-539; experiment: NCI human cancer cell line screen (COMPARE screening), CNS SF-539; type: cell-based
Text: as §1

[3] = system: HOP-62; experiment: NCI human cancer cell line screen (COMPARE screening), Lung HOP-62; type: cell-based
Text: as §1

[4] = system: human topoisomerase II; experiment: Topoisomerase II-mediated DNA cleavage assay (5'-end-labeled human c-myc DNA); type: biochemical
[5] = system: SN12C; experiment: NCI human cancer cell line screen (COMPARE screening), Renal SN12C; type: cell-based
Text: as §1

[6] = system: UACC-62; experiment: NCI human cancer cell line screen (COMPARE screening), Melanoma UACC-62; type: cell-based
Text: as §1

[7] = system: HCT-116; experiment: NCI human cancer cell line screen (COMPARE screening), Colon HCT-116; type: cell-based
Text: as §1

[8] = system: MDA-MB-435; experiment: NCI human cancer cell line screen (COMPARE screening), Breast MDA-MB-435; type: cell-based
Text: as §1

[9] = system: OVCAR-3; experiment: NCI human cancer cell line screen (COMPARE screening), Ovarian OVCAR-3; type: cell-based
Text: as §1

[10] = target: T1, topoisomerase I (Homo sapiens, UniProt P11387); experiment: Topoisomerase I-mediated DNA cleavage assay (3'-end-labeled 161 bp pBluescript SK(-) fragment); type: biochemical; conditions: for Top 1 Cleavage: relative to the activity of 1 μM camptothecin
T1 sequence (P11387 1-765): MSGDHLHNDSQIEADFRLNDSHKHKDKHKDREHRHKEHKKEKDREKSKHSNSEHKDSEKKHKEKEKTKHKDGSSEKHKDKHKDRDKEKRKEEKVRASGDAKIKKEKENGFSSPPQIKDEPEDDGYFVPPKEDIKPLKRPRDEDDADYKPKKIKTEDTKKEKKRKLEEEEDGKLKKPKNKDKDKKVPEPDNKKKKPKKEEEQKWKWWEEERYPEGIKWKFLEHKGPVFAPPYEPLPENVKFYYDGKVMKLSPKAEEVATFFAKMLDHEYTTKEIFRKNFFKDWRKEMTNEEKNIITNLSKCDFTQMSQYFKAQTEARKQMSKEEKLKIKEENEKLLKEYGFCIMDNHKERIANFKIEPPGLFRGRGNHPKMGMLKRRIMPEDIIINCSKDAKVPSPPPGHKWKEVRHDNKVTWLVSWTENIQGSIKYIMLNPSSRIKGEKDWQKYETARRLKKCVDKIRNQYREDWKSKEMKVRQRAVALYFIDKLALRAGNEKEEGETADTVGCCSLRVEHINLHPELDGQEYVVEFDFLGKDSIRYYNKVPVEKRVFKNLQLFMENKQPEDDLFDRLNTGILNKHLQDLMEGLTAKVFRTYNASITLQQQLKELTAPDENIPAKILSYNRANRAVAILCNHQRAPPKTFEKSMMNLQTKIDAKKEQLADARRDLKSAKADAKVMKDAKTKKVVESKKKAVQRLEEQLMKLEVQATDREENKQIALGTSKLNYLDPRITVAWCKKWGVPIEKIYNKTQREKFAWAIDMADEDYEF
Protocol: Topoisomerase I-Mediated DNA Cleavage Reactions Using 3′-End-labeled 161 BP Plasmid DNA
The 161 bp fragment from pBluescript SK(−) phagemid DNA (Stratagene, La Jolla, Calif.) was cleaved with the restriction endonuclease Pvu II and Hind III (New England Biolabs, Beverly, Mass.) in supplied NE buffer 2 (10 μL reactions) for 1 h at 37° C., separated by electrophoresis in a 1% agarose gel made in 1×TBE buffer. The 161 bp fragment was eluted from the gel slice (centrilutor by Amicon) and concentrated in a centricon 50 centrifugal concentrator (Amicon, Beverly, Mass.). Approximately 200 ng of the fragment was 3′-end-labeled at the Hind III site by fill-in reaction with [alpha-^32P]-dCTP and 0.5 mM dATP, dGTP, and dTTP, in React 2 buffer (50 mM Tris-HCl, pH 8.0, […], 50 mM NaCl) with 0.5 units of DNA polymerase I (Klenow fragment). Labeling reactions were followed by phenol-chloroform extraction and ethanol precipitation. The resulting 161 bp 3′-endlabeled DNA fragment was resuspended in water. Aliquots (approximately 50,000 dpm/reaction) were incubated with topoisomerase I at 30° C. for 15 min in the presence of the indicated drug. Reactions were terminated by adding 0.5% SDS. After ethanol precipitation, the samples were resuspended in loading buffer (80% formamide, 10 mM sodium hydroxide, 1 mM sodium EDTA, 0.1% xylene cyanol, and 0.1% bromophenol blue, pH 8.0), and separated in a denaturing gel (16% polyacrylamide, 7 M urea) run at 51° C. The gel was dried and visualized by using a Phosphoimager and ImageQuant software (Molecular Dynamics, Sunnyvale, Calif.).

[11] = system: approximately 55 different cancer cell lines of diverse tumor origins; experiment: NCI screen mean graph midpoint over all cell lines tested; type: cell-based, human; conditions: for IC50: average GI50 for all cell lines tested (approximately 55), values outside test range taken as 10^-8 or 10^-4 molar, read-out: MGM (mean graph midpoint)
Text: as §1

[12] = target: T2, topoisomerase I cleavage complexes (Homo sapiens, UniProt P11387); experiment: Salt reversal of topoisomerase I cleavage complexes; type: biochemical; conditions: increasing salt concentration
T2 sequence (P11387 1-765): T1 sequence (P11387 1-765)

[13] = Homo sapiens, DU-145, concentration causing 50% growth inhibition, read-out: Cytotoxicity (G150 in μM) Prostate DU-145
[14] = Homo sapiens, SF-539, concentration causing 50% growth inhibition, read-out: Cytotoxicity (G150 in μM) CNS SF-539
[15] = Homo sapiens, HOP-62, concentration causing 50% growth inhibition, read-out: Cytotoxicity (G150 in μM) Lung HOP-62
[16] = Homo sapiens, SN12C, concentration causing 50% growth inhibition, read-out: Cytotoxicity (G150 in μM) Renal SN12C
[17] = Homo sapiens, UACC-62, concentration causing 50% growth inhibition, read-out: Cytotoxicity (G150 in μM) Melanoma UACC-62
[18] = Homo sapiens, HCT-116, concentration causing 50% growth inhibition, read-out: Cytotoxicity (G150 in μM) Colon HCT-116
[19] = Homo sapiens, MDA-MB-435, concentration causing 50% growth inhibition, read-out: Cytotoxicity (G150 in μM) Breast MDA-MB-435
[20] = Homo sapiens, OVCAR-3, concentration causing 50% growth inhibition, read-out: Cytotoxicity (G150 in μM) Ovarian OVCAR-3

COc1cc2c(cc1OC)[C@H]1C(=O)c3cc4c(cc3[C@H]1N(C)C2=O)OCO4 (relative stereo) [Compound 20, cis-5,6,12,13-Tetrahydro-2,3-dimethoxy-6-methyl-5,11-dioxo-8,9(methylenedioxy)-(11H)indeno[1,2-c]isoquinoline]
IC50 [1]: 4.1 µM | IC50 [2]: 3.1 µM | IC50 [3]: 9.4 µM | induction of topoisomerase II cleavage complexes [4]: no effect | IC50 [5]: 2.1 µM | IC50 [6]: 0.42 µM | IC50 [7]: 2 µM | IC50 [8]: 17 µM | IC50 [9]: 6.7 µM | activity in the topoisomerase I cleavage assay (in words) [10]: weak | Top 1 Cleavage [10]: ± (those compounds having less than 20% of the activity of 1 μM camptothecin) | cytotoxicity (MGM) relative to lead compound 1 [11]: lower MGM than the lead compound 1 | IC50 [11]: 5 µM

O=C1c2ccccc2-c2c1c1ccccc1c(=O)n2CCCCO [Compound 7, 5,6-Dihydro-6-(4-hydroxy-1-butyl)-5,11-diketo-11H-indeno[1,2-c]isoquinoline]
IC50 [1, 13]: > 100 µM | IC50 [2, 14]: 4.6 µM | IC50 [3, 15]: 13 µM | induction of topoisomerase II cleavage complexes [4]: weak topoisomerase II activity | IC50 [5, 16]: 7.4 µM | IC50 [6, 17]: 4.4 µM | IC50 [7, 18]: 3.2 µM | IC50 [8, 19]: > 100 µM | IC50 [9, 20]: 74 µM | Top 1 Cleavage [10]: + (those compounds having between 20% and 50% of the activity of 1 μM camptothecin) | IC50 ([11]; Homo sapiens): 16 µM | cytotoxicity (MGM) relative to lead compound 1 ([11]; comparison in words): lower MGM than the lead compound 1

O=C1c2ccccc2-c2c1c1ccccc1c(=O)n2CCCCCO [Compound 8, 5,6-Dihydroxy-6-(5-hydroxy-1-pentyl)-5,11-diketo-11H-indeno[1,2-c]isoquinoline]
IC50 [1]: 3.4 µM | IC50 [3]: 4.4 µM | induction of topoisomerase II cleavage complexes [4]: weak topoisomerase II activity | IC50 [6]: 14.3 µM | IC50 [7]: 3.9 µM | IC50 [8]: 41 µM | IC50 [9]: 93 µM | Top 1 Cleavage [10]: + (those compounds having between 20% and 50% of the activity of 1 μM camptothecin) | cytotoxicity (MGM) relative to lead compound 1 [11]: lower MGM than the lead compound 1 | IC50 [11]: 14 µM

CCCCn1c2c(c3ccccc3c1=O)C(=O)c1cc3c(cc1-2)OCO3 [Compound 13b, 6-(1-Butyl)-5,6-dihydro-5,11-diketo-8,9-methylenedioxy-11H-indeno[1,2-c]isoquinoline]
IC50 [1, 13]: 38 µM | IC50 [2, 14]: 9 µM | IC50 [3, 15]: 17 µM | induction of topoisomerase II cleavage complexes [4]: no effect | IC50 [5, 16]: 37 µM | IC50 [6, 17]: 8.2 µM | IC50 [7, 18]: 2.9 µM | IC50 [8, 19]: > 100 µM | IC50 [9, 20]: 94 µM | Top 1 Cleavage [10]: + (those compounds having between 20% and 50% of the activity of 1 μM camptothecin) | IC50 ([11]; Homo sapiens): 30 µM

C=CCn1c2c(c3cc(OC)c(OC)cc3c1=O)C(=O)c1cc3c(cc1-2)OCO3 [Compound 13c, 6-Allyl-2,3-dimethoxy-5,6-dihydro-5,11-oxo-8,9-(methylenedioxy)-11H-indeno[1,2-c]isoquinoline]
IC50 [1]: 3.2 µM | reversal of induced cleavage sites by salt treatment [12]: reversed by salt treatment | IC50 [2]: 2.2 µM | IC50 [3]: 3.4 µM | induction of topoisomerase II cleavage complexes [4]: no effect | IC50 [5]: 2.6 µM | IC50 [7]: 2.3 µM | IC50 [8]: 5.2 µM | IC50 [9]: 6.6 µM | activity in the topoisomerase I cleavage assay (in words) [10]: rival the topoisomerase activity of 1 | Top 1 Cleavage [10]: + (those compounds having between 20% and 50% of the activity of 1 μM camptothecin) | IC50 [11]: 4.2 µM

CCn1c2c(c3cc(OC)c(OC)cc3c1=O)C(=O)c1cc3c(cc1-2)OCO3 [Compound 13k, 6-Ethyl-5,6-dihydro-5,11-diketo-2,3-dimethoxy-8,9-methylenedioxy-11H-indeno[1,2-c]isoquinoline]
IC50 [1, 13]: 2.3 µM | IC50 [2, 14]: 2 µM | IC50 [3, 15]: 2.2 µM | induction of topoisomerase II cleavage complexes [4]: no effect | IC50 [5, 16]: 3.6 µM | IC50 [6, 17]: 2.1 µM | IC50 [7, 18]: 2.6 µM | IC50 [8, 19]: 2.6 µM | IC50 [9, 20]: 3 µM | activity in the topoisomerase I cleavage assay (in words) [10]: very weak activity | Top 1 Cleavage [10]: ± (those compounds having less than 20% of the activity of 1 μM camptothecin) | IC50 ([11]; Homo sapiens): 2.4 µM | cytotoxicity (MGM) relative to lead compound 1 ([11]; comparison in words): lower MGM than the lead compound 1

CC[C@@]1(O)C(=O)OCc2c1cc1n(c2=O)Cc2cc3ccccc3nc2-1 [Compound 34, camptothecin, reference compound]
reversal of induced cleavage sites by salt treatment [12]: reversed by salt treatment
